Assay results reported in the supplement of paper PMC10307832.

Assays:
Assay in all cases: relative viability (nuclei count vs DMSO), 5 days (fraction); higher = more cells survive
Alisertib + Foretinib = compound: COc1cc(Nc2ncc3c(n2)-c2ccc(Cl)cc2C(c2c(F)cccc2OC)=NC3)ccc1C(=O)O [Alisertib] + COc1cc2c(Oc3ccc(NC(=O)C4(C(=O)Nc5ccc(F)cc5)CC4)cc3F)ccnc2cc1OCCCN1CCOCC1 [Foretinib] (partner 0.25 µM)
In short: (§1)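 Values are medians from duplicate plates. Each reflects relative viability, defined as the nuclei count of treated wells over that of vehicle wells. Lung cancer cell lines in 1536-well plates were pin-tool dosed one day after seeding with one drug alone or with a fixed anchor-drug dose plus five library-drug doses (not always all listed) in √10 steps, then fixed, stained and imaged at 4× after 5 days.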

Alisertib + Pictilisib = compound: COc1cc(Nc2ncc3c(n2)-c2ccc(Cl)cc2C(c2c(F)cccc2OC)=NC3)ccc1C(=O)O [Alisertib] + CS(=O)(=O)N1CCN(Cc2cc3nc(-c4cccc5[nH]ncc45)nc(N4CCOCC4)c3s2)CC1 [Pictilisib] (partner 1 µM)
In short: as §1

Alisertib + AZD7762 = compound: COc1cc(Nc2ncc3c(n2)-c2ccc(Cl)cc2C(c2c(F)cccc2OC)=NC3)ccc1C(=O)O [Alisertib] + NC(=O)Nc1cc(-c2cccc(F)c2)sc1C(=O)N[C@H]1CCCNC1 [AZD7762] (partner 0.2 µM)
In short: as §1

Alisertib + Vorinostat = compound: COc1cc(Nc2ncc3c(n2)-c2ccc(Cl)cc2C(c2c(F)cccc2OC)=NC3)ccc1C(=O)O [Alisertib] + O=C(CCCCCCC(=O)Nc1ccccc1)NO [Vorinostat] (partner 1 µM)
In short: as §1

Cell Line	relative viability (Alisertib + Foretinib; first compound 0.005 µM)	relative viability (Alisertib + Foretinib; first compound 0.01581 µM)	relative viability (Alisertib + Foretinib; first compound 0.05 µM)	relative viability (Alisertib + Foretinib; first compound 0.1581 µM)	relative viability (Alisertib + Foretinib; first compound 0.5 µM)	relative viability (Alisertib + Pictilisib; first compound 0.005 µM)	relative viability (Alisertib + Pictilisib; first compound 0.01581 µM)	relative viability (Alisertib + Pictilisib; first compound 0.05 µM)	relative viability (Alisertib + Pictilisib; first compound 0.1581 µM)	relative viability (Alisertib + Pictilisib; first compound 0.5 µM)	relative viability (Alisertib + AZD7762; first compound 0.005 µM)	relative viability (Alisertib + AZD7762; first compound 0.01581 µM)	relative viability (Alisertib + AZD7762; first compound 0.05 µM)	relative viability (Alisertib + AZD7762; first compound 0.1581 µM)	relative viability (Alisertib + AZD7762; first compound 0.5 µM)	relative viability (Alisertib + Vorinostat; first compound 0.005 µM)	relative viability (Alisertib + Vorinostat; first compound 0.01581 µM)	relative viability (Alisertib + Vorinostat; first compound 0.05 µM)	relative viability (Alisertib + Vorinostat; first compound 0.1581 µM)	relative viability (Alisertib + Vorinostat; first compound 0.5 µM)
201T	1.14	0.997	1.02	0.453	0.271	0.623	0.676	0.671	0.326	0.327	0.618	0.753	0.675	0.46	0.277	0.927	0.881	0.913	0.414	0.333
PC-14	0.849	0.77	0.837	0.473	0.135	0.632	0.672	0.447	0.127	0.0567	0.226	0.38	0.272	0.0966	0.0539	0.627	0.63	0.367	0.0643	0.0761
PC-3 [JPC-3]	0.97	0.868	0.706	0.531	0.398	0.616	0.728	0.667	0.349	0.369	0.649	0.778	0.705	0.403	0.317	0.596	0.68	0.769	0.367	0.354
LK-2	0.955	0.979	0.601	0.245	0.189	0.573	0.566	0.314	0.329	0.26	0.321	0.382	0.205	0.153	0.14	0.229	0.326	0.167	0.176	0.186
NCI-H1944	0.845	0.818	0.633	0.386	0.227	0.327	0.35	0.351	0.21	0.205	0.531	0.54	0.421	0.147	0.147	0.573	0.52	0.339	0.183	0.188
HCC-78	0.548	0.438	0.329	0.238	0.275	0.172	0.253	0.168	0.145	0.0967	0.544	0.569	0.363	0.23	0.28	0.369	0.281	0.234	0.241	0.217
NCI-H2405	1.02	0.992	0.838	0.371	0.286	0.433	0.358	0.365	0.274	0.176	0.589	0.684	0.66	0.24	0.251	0.913	0.898	0.799	0.288	0.213
EMC-BAC-2	0.922	0.838	0.318	0.252	0.203	0.516	0.414	0.291	0.271	0.233	0.834	0.569	0.591	0.313	0.28	0.28	0.257	0.202	0.186	0.151
NCI-H647	1.08	1.04	0.691	0.301	0.131	0.42	0.449	0.274	0.137	0.0788	0.314	0.367	0.103	0.0861	0.0503	0.49	0.156	0.106	0.112	0.0745
LCLC-97TM1	0.91	0.707	0.379	0.253	0.182	0.223	0.167	0.135	0.108	0.0964	0.192	0.307	0.207	0.103	0.0633	0.524	0.515	0.135	0.0952	0.0792
H3255	0.823	0.821	0.573	0.219	0.177	0.472	0.447	0.286	0.165	0.152	0.712	0.952	0.613	0.274	0.234	0.8	0.822	0.656	0.337	0.264
LXF-289	0.858	0.675	0.218	0.187	0.157	0.701	0.565	0.576	0.103	0.0904	0.922	0.637	0.682	0.163	0.138	0.587	0.493	0.189	0.139	0.188
NCI-H596	0.87	0.804	0.762	0.175	0.395		0.412	0.433	0.214	0.242	0.96	1.02	1.15	0.926	0.66	0.514	0.655	0.616	0.488	0.311
LC-2-ad	0.803	0.597	0.503	0.351	0.285	0.116	0.251	0.107	0.108	0.105	0.768	0.5	0.224	0.185	0.15	0.454	0.313	0.24	0.177	0.161
A-427	0.877	0.777	0.197	0.182	0.178	0.615	0.451	0.234	0.147	0.172	0.602	0.362	0.206	0.196	0.212	0.603	0.41	0.313	0.27	0.262
NCI-H322M	0.896	0.925	0.649	0.402	0.397	0.497	0.477	0.451	0.321	0.311	0.435	0.565	0.47	0.393	0.395	0.806	0.864	0.772	0.502	0.514
